Structures are written as SMILES. pIC50: −log10 of the molar value.

This assay has as its target T1, serotonin S2 (5-HT2) receptors (Rattus norvegicus, UniProt P14842).
T1 construct: cortical tissue is dissected and weighed; from tissue; host or cells: cerebral cortex membranes of male Wistar (Mol:Wist) rats
The assay is described as follows: inhibition of 3H-ketanserin binding to serotonin S2 (5-HT2) receptors in rat cortex in vitro. Particulars: 3H-ketanserin 0.5 nM, rat cortex membranes, read-out: Binding IC50, 3H Ket. How it is done: Method in Hyttel, Pharmacology & Toxicology, 61, 126-129. 1987.
Male Wistar (Mol:Wist) rats (125-250 g) are sacrifices and cortical tissue is dissected and weighed. The tissue is homogenized (Ultra Turrax, 10 sec.) in 10 ml of ice-cold 50 mM tris buffer pH 7.7 (at 25° C.). The centrifuge glassware used in this step has been rinsed by sonication for 10 min. in ethanol. The homogenate is centrifuged twice at 20,000 g for 10 min. at 4° C. with rehomogenization of the pellet in 10 ml ice-cold buffer. The final pellet is homogenized in 500 vol (w/v) ice-cold buffer.
Incubation tubes kept on ice in triplicate receive 100 μl of drug solution in water (or water for total binding) and 2000 μl of tissue suspension (final tissue content corresponds to 4 mg original tissue). […] After incubation for 30 min. the samples are filtered under vacuum (0-50 mBar) through Whatman GF/F filters (25 mm). The tubes are rinsed with 5 ml ice-cold buffer which are then poured on the filters. Thereafter, the filters are washed with 2×5 ml of buffer. The filters are placed in counting vials and 4 ml of appropriate scintillation fluid (e.g., Picofluor™15) are added. After shaking for 1 h and storage 2 hrs in the dark the content of radioactivity is determined by liquid scintillation counting. Specific binding is obtained by subtracting the nonspecific binding in the presence of 1 μM mianserin. For determination of the inhibition of binding five concentrations of drugs covering 3 decades are used.
The IC50 value is determined as the concentration at which the binding is 50% of the total binding in control samples minus the nonspecific binding in the presence of 1 μM mianserin.

T1 sequence (P14842 whole entry): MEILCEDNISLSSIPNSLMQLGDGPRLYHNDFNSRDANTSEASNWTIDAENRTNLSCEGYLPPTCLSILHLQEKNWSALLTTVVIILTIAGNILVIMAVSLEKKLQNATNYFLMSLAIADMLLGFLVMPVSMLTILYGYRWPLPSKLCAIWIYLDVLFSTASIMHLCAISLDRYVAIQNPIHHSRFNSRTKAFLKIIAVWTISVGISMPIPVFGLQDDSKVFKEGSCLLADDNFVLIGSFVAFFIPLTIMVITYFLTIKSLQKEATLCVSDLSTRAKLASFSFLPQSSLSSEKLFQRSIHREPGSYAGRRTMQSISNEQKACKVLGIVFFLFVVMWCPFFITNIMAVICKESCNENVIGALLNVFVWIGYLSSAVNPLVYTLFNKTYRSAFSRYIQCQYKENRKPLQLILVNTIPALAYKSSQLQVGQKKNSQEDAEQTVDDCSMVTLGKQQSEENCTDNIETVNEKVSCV

In general, pIC50 refers to −log10 of the IC50, conventionally taken in molar units. On to `O=C1NCCN1CCN1CCC(c2cn(-c3ccc(F)cc3)c3cc(C(F)(F)F)ccc23)CC1` [Compound 4d, 1-(4-fluorophenyl)-3-[1-[2-(2-imidazolidinon-1-yl)ethyl]-4-piperidyl]-6-trifluoromethyl-1H-indole], for which the pIC50 was 8.77.

With `OCCN1CCC(c2cn(-c3ccc(F)cc3)c3cc(Cl)ccc23)CC1` [Compound 4f, 6-chloro-1-(4-fluorophenyl)-3-[1-(2-hydroxyethyl)-4-piperidyl]-1H-indole], the pIC50 is 7.96.

In the case of `O=C1NCCN1CCN1CCC(c2cn(-c3ccc(F)cc3)c3cc(Br)ccc23)CC1` [Compound 4h, 6-bromo-1-(4-fluorophenyl)-3-[1-[2-(2-imidazolidinon-1-yl)ethyl-]-4-piperidyl]-1H-indole], the pIC50 was 8.74.

As to `CC(C)N1CCN(CCN2CCC(c3cn(-c4ccc(F)cc4)c4cc(Br)ccc34)CC2)C1=O` [Compound 5b, 6-bromo-1-(4-fluorophenyl)-3-[1-[2-[3-(2-propyl)-2-imidazolidinon-1-yl]ethyl]-4-piperidyl]-1H-indole], the pIC50 was 8.70.

For the compound `CC(C)c1ccc2c(C3CCN(CCN4CCNC4=O)CC3)cn(-c3ccc(F)cc3)c2c1` [Compound 5d, 1-(4-fluorophenyl)-6-(2-propyl)-3-[1-[2-(2-imidazolidinon-1-yl)ethyl]-4-piperidyl]-1H-indole], the pIC50 was 7.74.

For `CC(C)N1CCN(CCN2CCC(c3cn(-c4ccc(F)cc4)c4cc(Cl)c(Cl)cc34)CC2)C1=O` [Compound 5e, 5,6-dichloro-1-(4-fluorophenyl)-3-[1-[2-[3-(2-propyl)-2-imidazolidinon-1-yl]ethyl]-4-piperidyl]-1H-indole], the pIC50 was 8.47.

For the compound `CC(C)N1CCN(CCN2CCC(c3cn(-c4ccc(F)cc4)c4cc5c(cc34)CCC5)CC2)C1=O` [Compound 5g, 1-(4-fluorophenyl)-3-[1-[2-[3-(2-propyl)-2-imidazolidinon-1-yl]ethyl]-4-piperidyl]-1,5,6,7-tetrahydrocyclopent[f]-1H-indole], the pIC50 was 8.49.

In the case of `O=C1NCCN1CCN1CCC(c2cn(-c3ccc(F)cc3)c3cc4c(cc23)CCC4)CC1` [Compound 5h, 1-(4-fluorophenyl)-3-[1-[2-(2-imidazolidinon-1-yl)ethyl]-4-piperidyl]-1,5,6,7-tetrahydrocyclopent[f]-1H-indole], the pIC50 is 8.92.

As for `CNC(=S)NCCN1CCC(c2cn(-c3ccc(F)cc3)c3cc(Cl)ccc23)CC1` [Compound 9c, 6-chloro-1-(4-fluorophenyl)-3-[1-[2-(3-methyl-1-thioureido)-1-ethyl]-4-piperidyl]-1H-indole], the pIC50 is 7.92.

With `CCN(CCN1CCC(c2cn(-c3ccc(F)cc3)c3cc(Cl)ccc23)CC1)C(=O)N(C)C` [Compound 9e, 6-chloro-3-[1-[2-(3,3-dimethyl-1-ethyl-1-ureido)-1-ethyl]-4-piperidyl]-1-(4-fluorophenyl)-1H-indole], the pIC50 is 8.19.

As for `CN(C)C(=S)NCCN1CCC(c2cn(-c3ccc(F)cc3)c3cc(Cl)ccc23)CC1` [Compound 9f], the pIC50 was 8.60.

As for `CC(C)N(C)C(=O)NCCN1CCC(c2cn(-c3ccc(F)cc3)c3cc(Cl)ccc23)CC1` [Compound 9g, 6-chloro-1-(4-fluorophenyl)-3-[1-[2-[3-methyl-3-(2-propyl)-1-ureido]-1-ethyl]-4-piperidyl]-1H-indole], the pIC50 was 8.21.

Regarding `CNC(=O)N(C)CCN1CCC(c2cn(-c3ccc(F)cc3)c3cc(Cl)ccc23)CC1` [Compound 9h, 6-chloro-1-(4-fluorophenyl)-3-[1-[2-(1,3-dimethyl-1-ureido)-1-ethyl]-4-piperidyl]-1H-indole], the pIC50 was 8.80.

Turning to `CC(C)NC(=O)N(C)CCN1CCC(c2cn(-c3ccc(F)cc3)c3cc(Cl)ccc23)CC1` [Compound 9i, 6-chloro-1-(4-fluorophenyl)-3-[1-[2-(1-methyl-3-(2-propyl)-1-ureido)-1-ethyl]-4-piperidyl]-1H-indole], the pIC50 is 8.66.

`CC(=O)NCCN1CCC(c2cn(-c3ccc(F)cc3)c3cc(Cl)ccc23)CC1` [Compound 9j]: the pIC50 is 7.96.

Values taken from patent publication US5216001A, “Indole derivatives” (H. Lunbeck A/S, priority 1990, dated 1993).
